Test results from patent US20230233482A1, “COMPOSITIONS COMPRISING THYMOL FOR USE IN THE TREATMENT OF INFLAMMATORY OR FUNCTIONAL BOWEL DISORDERS BY MODULATING THE ENDOCANNABINOID SYSTEM” (priority 2020, published 2023).

Columns and labels:
[1] = weaned piglets, 25.5-510 mg thymol/kg feed
Protocol: […] piglets (Duroc—Large White) weaned at 28 days of age and with a body weight (BW) of 7.71±1.00 kg were divided into 40 pens (4 piglets per pen, castrated males and females were placed in separate pens) and randomly assigned to one of the following experimental groups (n=32): control group fed with the basal diet (T1), a group fed with the basal diet supplemented with 25.5 mg of thymol/kg feed (T2), a group fed with the basal diet supplemented with 51 mg of thymol/kg feed (T3), a group fed with the basal diet supplemented with 153 mg of thymol/kg feed (T4) and a group fed with the basal diet supplemented with 510 mg of thymol/kg feed (T5). Thymol was provided in a form embedded (microencapsulated) in a lipid matrix (Vetagro SpA, Reggio Emilia, Italy). Concentrations of thymol were selected to meet or exceed the upper limit of inclusion in food and feed established by the European Agency for the Evaluation of Medicinal Products and for the feed. The basal feed was formulated to meet or exceed the nutritional requirements of pigs according to the National Research Council, and feed and water were provided ad libitum (the composition of the basal diet is reported in Table 1). The health condition of the animals was monitored during the study. The piglets were individually weighed at the beginning (day 0) and end (day 14) of the study. Growth parameters, such as FI, ADFI, ADG and F:G (FI—feed intake; ADFI—Average daily feed intake; ADG—Average daily gain; F:G—Feed to gain ratio), were measured in the animals housed in each pen on day 14 (d14) of the experiment.
Animals were blocked in a completely randomised design and data were analysed using GraphPad Prism® software (GraphPad Software, Inc., La Jolla, Calif., USA). Data were analysed using one-way ANOVA followed by Tukey's post hoc test to detect differences among treatments. The pen was the experimental unit for growth performance, whereas the pig was the experimental unit for gene expression. Differences were considered significant at P<0.05, and trends were defined at 0.05≤P<0.1.

CB1 mRNA = assay: Gene expression (real-time PCR) of cannabinoid receptor 1 in duodenal and ileal mucosa at d14; type: in vivo, pigs
Protocol: (§1) At the end of the study, 8 animals from each treatment group were sacrificed, samples were collected, and analysed. Duodenal and ileal mucosal scrapings were collected. The duodenum and ileum were longitudinally cut to expose the mucosa, washed with a phosphate-buffered saline solution to remove mucus and digesta, then scraped gently, packed, immediately frozen in liquid nitrogen and stored at -80° C. until the analyses of gene and protein expression. Gene expression was analysed using the method reported by […] et al. [The Journal of Nutrition. 2011; 141:2139-45]. Duodenal and ileal scraping samples obtained on d14 of the study were disrupted by grinding them in liquid nitrogen with mortar and pestle, and then homogenised using a TissueLyser (Qiagen, Hilden, Germany). Total RNA was isolated using a NucleoSpin® RNA Kit (Macherey-Nagel, Düren, Germany) according to the manufacturer's instructions. Genomic DNA contamination was removed by treating the samples with the deoxyribonuclease supplied in the extraction kit ([…], RNase-free; Macherey-Nagel). The RNA yield and quality were determined spectrophotometrically by measuring the absorbance at 260 and 280 nm (A260 and A280 nm, respectively) (Microvolume Mode with SmartPath® Technology, Denovix). One microgram of RNA was reverse transcribed using the iScript cDNA Synthesis Kit (Bio-Rad Laboratories Inc., Hercules, Calif., USA) according to the manufacturer's instructions. Real-time PCR was performed using an iCycler Thermal Cycler system and SybrGreen Supermix (Bio-Rad Laboratories Inc.). […] The average threshold cycle (CT) was determined for each gene of interest, and the geometric average was calculated for HK by assuming that CT is the number of cycles required to reach a fixed arbitrary threshold. Delta CT was calculated, then a modification of the 2^-ΔΔCT method [Livak K J, et al., Methods 2001; 25:402-8] was used to analyse the relative expression (fold changes), which was calculated relative to the control group. […]

CB2 mRNA = assay: Gene expression (real-time PCR) of cannabinoid receptor 2 in duodenal and ileal mucosa at d14; type: in vivo, pigs
Protocol: At the end of the study, 8 animals from each treatment group were sacrificed, samples were collected, and analysed. Duodenal and ileal mucosal scrapings were collected. The duodenum and ileum were longitudinally cut to expose the mucosa, washed with a phosphate-buffered saline solution to remove mucus and digesta, then scraped gently, packed, immediately frozen in liquid nitrogen and stored at -80° C. until the analyses of gene and protein expression. Gene expression was analysed using the method reported by […] et al. [The Journal of Nutrition. 2011; 141:2139-45]. Duodenal and ileal scraping samples obtained on d14 of the study were disrupted by grinding them in liquid nitrogen with mortar and pestle, and then homogenised using a TissueLyser (Qiagen, Hilden, Germany). Total RNA was isolated using a NucleoSpin® RNA Kit (Macherey-Nagel, Düren, Germany) according to the manufacturer's instructions. Genomic DNA contamination was removed by treating the samples with the deoxyribonuclease supplied in the extraction kit ([…], RNase-free; Macherey-Nagel). The RNA yield and quality were determined spectrophotometrically by measuring the absorbance at 260 and 280 nm (A260 and A280 nm, respectively) (Microvolume Mode with SmartPath® Technology, Denovix). One microgram of RNA was reverse transcribed using the iScript cDNA Synthesis Kit (Bio-Rad Laboratories Inc., Hercules, Calif., USA) according to the manufacturer's instructions. Real-time PCR was performed using an iCycler Thermal Cycler system and SybrGreen Supermix (Bio-Rad Laboratories Inc.). The thermocycling protocol provided for an initial denaturation step for 1 min and 30 seconds at 95° C., followed by 40 cycles of denaturation at 95° C. for 15 seconds and 30 seconds of annealing and extension at 60° C. After amplification, a melting curve analysis was performed for all the samples, with slow heating from 55° C. to 95° C. at a rate of 0.5° C./s to validate the absence of non-specific products. Gene expression was normalised to a housekeeping gene (HK) encoding portions of porcine ribosomal subunit 60 S, in particular ribosomal protein […] (RPL35). The average threshold cycle (CT) was determined for each gene of interest, and the geometric average was calculated for HK by assuming that CT is the number of cycles required to reach a fixed arbitrary threshold. Delta CT was calculated, then a modification of the 2^-ΔΔCT method [Livak K J, et al., Methods 2001; 25:402-8] was used to analyse the relative expression (fold changes), which was calculated relative to the control group. The sequences, accession numbers in the EMBL database/GenBank, expected product lengths and references for porcine primers are reported in Table 2. […]

FAAH mRNA = assay: Gene expression (real-time PCR) of ECS enzyme FAAH in duodenal and ileal mucosa at d14; type: in vivo, pigs
Protocol: (§2) At the end of the study, 8 animals from each treatment group were sacrificed, samples were collected, and analysed. Duodenal and ileal mucosal scrapings were collected. The duodenum and ileum were longitudinally cut to expose the mucosa, washed with a phosphate-buffered saline solution to remove mucus and digesta, then scraped gently, packed, immediately frozen in liquid nitrogen and stored at -80° C. until the analyses of gene and protein expression. Gene expression was analysed using the method reported by […] et al. [The Journal of Nutrition. 2011; 141:2139-45]. […] The RNA yield and quality were determined spectrophotometrically by measuring the absorbance at 260 and 280 nm (A260 and A280 nm, respectively) (Microvolume Mode with SmartPath® Technology, Denovix). […] The average threshold cycle (CT) was determined for each gene of interest, and the geometric average was calculated for HK by assuming that CT is the number of cycles required to reach a fixed arbitrary threshold. Delta CT was calculated, then a modification of the 2^-ΔΔCT method [Livak K J, et al., Methods 2001; 25:402-8] was used to analyse the relative expression (fold changes), which was calculated relative to the control group. […]

TRPV1 mRNA = assay: Gene expression (real-time PCR) of gut chemosensing marker TRPV1 in duodenal and ileal mucosa at d14; type: in vivo, pigs; details: for TRPV1 mRNA levels compared to the control group: ileum, d14, P=0.0183
Protocol: as §1

OR1G1 mRNA = assay: Gene expression (real-time PCR) of gut chemosensing marker OR1G1 in duodenal and ileal mucosa at d14; type: in vivo, pigs
Protocol: as §2

## Cc1ccc(C(C)C)c(O)c1 [thymol]
[1]; 14 days
  health conditions: good health conditions
  mortality: no mortality
[1]; day 14, data not shown
  differences in average daily feed intake (ADFI) among the treatment groups: not observed
  differences in average daily gain (ADG) among the treatment groups: not observed
  differences in body weight (BW) among the treatment groups: not observed
  differences in feed intake (FI) among the treatment groups: not observed
  differences in feed to gain ratio (F:G) among the treatment groups: not observed
CB1 mRNA; duodenum, group T5 (510 mg thymol/kg feed), d14, P=0.0209
  level of the CB1 mRNA compared to the control group: significantly increased
CB1 mRNA; ileum, group T4 (153 mg thymol/kg feed), d14, P=0.0054
  level of the CB1 mRNA compared to the control group: significantly increased
CB1 mRNA; ileum, group T5 (510 mg thymol/kg feed), d14, P=0.0054
  level of the CB1 mRNA compared to the control group: significantly increased
CB2 mRNA; duodenum, group T4 (153 mg thymol/kg feed), d14, P=0.004
  levels of the CB2 mRNA compared to the control group: Significantly increased
CB2 mRNA; duodenum, group T5 (510 mg thymol/kg feed), d14, P=0.004
  levels of the CB2 mRNA compared to the control group: Significantly increased
CB2 mRNA; ileum, group T4 (153 mg thymol/kg feed), d14, P=0.0162
  levels of the CB2 mRNA compared to the control group: Significantly increased
CB2 mRNA; ileum, group T5 (510 mg thymol/kg feed), d14, P=0.0162
  levels of the CB2 mRNA compared to the control group: Significantly increased
FAAH mRNA; duodenum, all thymol groups (25.5-510 mg/kg feed), d14
  differences in FAAH mRNA levels: not observed
FAAH mRNA; ileum, group T4 (153 mg thymol/kg feed), d14, P=0.0028
  FAAH mRNA levels compared to the control group: significantly increased
TRPV1 mRNA; duodenum, 510 mg thymol/kg of feed, d14, P=0.0382
  TRPV1 mRNA level: increased
TRPV1 mRNA; group T4 (153 mg thymol/kg feed)
  TRPV1 mRNA levels compared to the control group: increased
TRPV1 mRNA; group T5 (510 mg thymol/kg feed)
  TRPV1 mRNA levels compared to the control group: increased
OR1G1 mRNA; duodenum, 510 mg thymol/kg feed (T5), d14, P=0.0210
  OR1G1 mRNA expression compared to the control group: higher levels
OR1G1 mRNA; ileum, 153 mg thymol/kg feed (T4), d14, P=0.0235
  OR1G1 mRNA expression compared to the control group: higher levels
